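Interpolation was linear, between the two tested concentrations surrounding the appropriate level; five concentrations were tested over 48 hours in 96-well plates. The concentration for 50% growth inhibition is given as GI50. TGI: concentration producing complete growth inhibition.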
Experiments:
Assay in all cases: NCI-60 cell line screen, 48 h
HS 578T breast = test system: HS 578T breast
U251 CNS = test system: U251 CNS
SK-MEL-5 melanoma = test system: SK-MEL-5 melanoma
UACC-257 melanoma = test system: UACC-257 melanoma
SK-MEL-2 melanoma = test system: SK-MEL-2 melanoma
HL-60(TB) leukemia = test system: HL-60(TB) leukemia
LOX IMVI melanoma = test system: LOX IMVI melanoma
COLO 205 colon = test system: COLO 205 colon
OVCAR-4 ovarian = test system: OVCAR-4 ovarian
K-562 leukemia = test system: K-562 leukemia
RPMI-8226 leukemia = test system: RPMI-8226 leukemia
786-0 renal = test system: 786-0 renal
MALME-3M melanoma = test system: MALME-3M melanoma
A498 renal = test system: A498 renal
MDA-MB-231 breast = test system: MDA-MB-231 breast
SK-OV-3 ovarian = test system: SK-OV-3 ovarian
MOLT-4 leukemia = test system: MOLT-4 leukemia

## Fc1c[c-]c(-c2ccccn2)c(F)c1.Fc1c[c-]c(-c2ccccn2)c(F)c1.[Cl][Pt+].[Cl][Pt+].c1ccc([PH+](C[PH+](c2ccccc2)c2ccccc2)c2ccccc2)cc1
HS 578T breast
  GI50: 275 nM
  TGI: 1170 nM
U251 CNS
  GI50: 63 nM
  TGI: 218 nM
SK-MEL-5 melanoma
  GI50: 164 nM
  TGI: 307 nM
UACC-257 melanoma
  GI50: 235 nM
  TGI: 815 nM
SK-MEL-2 melanoma
  GI50: 193 nM
  TGI: 479 nM
HL-60(TB) leukemia
  GI50: 271 nM
  TGI: 813 nM
LOX IMVI melanoma
  GI50: 380 nM
  TGI: 1380 nM
COLO 205 colon
  GI50: 132 nM
  TGI: 362 nM
OVCAR-4 ovarian
  GI50: 154 nM
  TGI: 977 nM
K-562 leukemia
  GI50: 95.5 nM
  TGI: > 100000 nM
RPMI-8226 leukemia
  GI50: 80 nM
  TGI: 466 nM
786-0 renal
  GI50: 184 nM
  TGI: 380 nM
MALME-3M melanoma
  GI50: 264 nM
  TGI: 758 nM
A498 renal
  GI50: 164 nM
  TGI: 461 nM
MDA-MB-231 breast
  GI50: 139 nM
  TGI: 373 nM
SK-OV-3 ovarian
  GI50: 330 nM
  TGI: 910 nM
MOLT-4 leukemia
  GI50: 328 nM

Reference: PubChem BioAssay (NCI)
